According to patent US8648101B2, “Nematicidal agent composition and method of using the same” (Nihon Nohyaku Co., Ltd., priority 2007, dated 2014):

Legend:
[1] = test system: southern root-knot nematode (Meloidogyne incognita); experiment: Nematocidal test on the southern root-knot nematode, pot-grown melon seedlings; assay type: in vivo; set-up: key: A: no root knots.; B: root knots are present but their number is definitely smaller than that for untreated plot.; C: root knots are present in an equivalent number to or a larger number than that for untreated plot; conditions: 30 ppm emulsion dilution, 1 ml injected at foot of melon seedlings; 8 days after inoculation
Method: Nematocidal Test on the Southern Root-Knot Nematode (Meloidogyne incognita)
An emulsion comprising each compound listed in Table 1 as an active ingredient was prepared as directed in Preparation Example 1, and diluted to obtain active ingredient concentrations of 300 ppm and 30 ppm. Each of these dilutions (1 ml) was applied to the foots of pot-grown melon seedlings by injection; 1 day after application of the dilution, an aqueous suspension of southern root-knot nematodes (about 500 nematodes/ml) was inoculated (soil injection), to a treated plot and an untreated plot and the pots were placed in a 25° C. greenhouse. Eight days after the inoculation, the roots were washed with water and examined for the number of root knots, and the effects were determined according to the following rating criteria.
• A: no root knots. • B: root knots are present but their number is definitely smaller than that for untreated plot. • C: root knots are present in an equivalent number to or a larger number than that for untreated plot.

[2] = test system: soybean cyst nematode (Heterodera grycines); experiment: Nematocidal test on the soybean cyst nematode, treated soil with soybean; assay type: in vivo; set-up: key: A: no cysts.; B: cysts are present but their number is definitely smaller than that for untreated plot.; C: cysts are present in an equivalent number to or a larger number than that for untreated plot; conditions: 7.5 mg wettable powder (1.5 mg active ingredient per kg soil); 40 days after seeding
Method: Nematocidal Test on the Soybean Cyst Nematode (Heterodera grycines)
A wettable powder comprising each compound listed in Table 1 as an active ingredient was prepared as directed in Preparation Example 4, and 75 mg and 7.5 mg were weighed out so that the active ingredient content would be 15 mg and 1.5 mg per kg soil; these agents were mixed in soil (1000 g) contaminated with soybean cyst nematodes in a plastic bag. The treated soil was filled in pots, soybean seeds were sown, and the pots were placed in a glass greenhouse. Forty days after the seeding, the soil on the roots was put down, the number of cysts was examined, and the effect was determined according to the rating criteria shown below.
• A: no cysts. • B: cysts are present but their number is definitely smaller than that for untreated plot. • C: cysts are present in an equivalent number to or a larger number than that for untreated plot.

**Q.** For O=C(NCCc1ncc(C(F)(F)F)cc1Cl)c1ccccc1C(F)(F)F [Compound 7, N-[2-(3-chloro-5-trifluoromethylpyridin-2-yl)ethyl]-2-trifluoromethylbenzamide], which “rating (number of root knots)” value [1] is on record?
**A.** A

**Q.** What about the “rating (number of cysts)” value [2] of the same molecule?
**A.** A
